Assay results taken from patent US20250312320A1, “METHOD AND TREATMENT FOR OSTEOARTHRITIS AND DISEASES OF CHONDROCYTE HYPERTROPHY” (The Royal Veterinary College, priority 2022, published 2025).
Entries after “also recorded” stand apart in the source; their conditions may differ.

Assays:
ATDC5 micromass = test: IL-1β induced extracellular matrix degradation of ATDC5 micromass: gene expression; type: cell-based, mouse
Method: To mimic this route of cartilage degradation in vitro, 10 μl ATDC5 micromasses were seeded and differentiated in the presence of 1 μM BI1347 or DMSO for 11 days to allow for sufficient ECM deposition. Cells were then serum starved for 24 hours in differentiation media containing 1% FBS before treatment with 1 μM BI1347 or DMSO for 1 hour and subsequent induction of ECM degradation by co-treatment with 10 ng/ml IL-1β (PeproTech) for 48 hours. Compound only conditions were used as a negative control and additional micromasses were differentiated in the presence of 1 μM BI1347 for the entire culture period to observe whether pre-treatment of ATDC5 with BI1347 alters cellular responses to IL-1B. On day 14 micromasses were stained with alcian blue and leached as previous and RNA extracted for gene expression analysis as above.

ATDC5 micromasses = test: RNA sequencing of BI1347 treated ATDC5 micromasses; type: cell-based, mouse; details: 1 μM vs DMSO
Method: 2.7×10^5 ATDC5 cells were seeded in a 10 μl micromasses and differentiated in the presence of 1 μM BI1347 or DMSO control for 7 days before RNA extraction as previously described. Two wells were pooled per extraction and treatment conditions were set up in triplicate.
Total RNA quantification and integrity was determined via Bioanalyzer 2100 (Agilent) and RNA samples with an integrity number above 9.0 were processed for RNA sequencing.
The RNA library was formed by polyA capture using poly-T oligo attached magnetic beads and subsequently reverse transcribed for cDNA synthesis and library construction. The library was then sequenced using the Illumina PE150 technology and clean reads with high quality data were taken forward for downstream analysis. Paired-end clean reads were aligned to the Mus Musculus reference genome and reads numbers mapped to each gene. Fragments Per Kilobase of transcript sequence per Millions base pairs sequenced (FPKM) of each gene was calculated based on the length of the gene and reads count mapped to the gene.
Differential expression analysis of BI1347 treatment versus DMSO control was performed. Genes with an adjusted P-value≤0.05 and a fold change≥2 were considered differentially expressed.
Cluster analysis was carried out on all the differentially expressed genes in each group and biological replicate using hierarchical clustering to cluster the FPKM values of genes.
Genes of interest relating to chondrocyte hypertrophy and cartilage homeostasis were identified.

[1] = tested on: ihMSC (TERT immortalised human mesenchymal stromal cell line); test: ihMSC micromasses in chondrogenesis and IL1β OA disease degradation model; type: cell-based; details: 100 nM
Method: Additional experiments were carried out on primary chondrocytes (equine, canine and human) and ihMSC (TERT immortalised human mesenchymal stromal cell line) to investigate whether CDK8i protects from IL-1β induced degradation when added throughout the entirety of differentiation/IL-1β treatment. Briefly, ihMSCs were seeded at a density of 5×10^4 cells per 10 μl micromass and differentiated in ihMSC chondrogenic media (1% FBS, 1% Ab/Am, 1× Insulin-Transferrin-Selenium premix, 10 μM Y-27632, 100 nM dexamethasone, 50 μg/ml ascorbic acid, 20 ng/ml TGF-β3 (Peprotech)). Primary chondrocytes were seeded at 2.7×10^5 cells per 10 μl micromass and differentiated in primary chondrocyte differentiation media. All micromasses were differentiated for 12 days in the presence of 100 nM […] or DMSO. Some micromasses were processed for gene expression analysis/alcian blue staining on day 12, whilst others were treated with IL-β media (1% FBS, 1% Ab/Am, 10 ng/ml IL-1B) and CDK8i for 48-hours before processing for alcian blue staining/gene expression analysis on day 14 as previously described.

[2] = tested on: STR/Ort mouse tibial subchondral bone; test: STR/Ort mouse 12 week study: microCT of subchondral bone; type: in vivo; details: 5 mg/kg oral intermittently, 12 weeks, N=3/group
Method: Following the pilot study, a larger in vivo study using the STR/Ort OA mouse model was conducted. […]
On week 12 mice were sacrificed and hind limbs were fixed in 4% PFA for 48 hours before storing in 70% EtOH. Micro computed tomography (μCT) scans were carried out on hind limbs to analyse MSC2530818 effects on bone. Samples were wrapped in plastic film before scanning to prevent drying and scanned using the Skyscan 1172F (Bruker). Whole limbs were scanned with X-ray settings 50 kV and 200 μA, using an aluminum 0.5 mm filter, 960 ms exposure time and 5 μm pixel size. Scanned images were reconstructed into tomograms using NRecon 1.7.3.1 (Bruker) using a reconstruction threshold with a minimum value of −1000 and maximum value of 9486 in Hounsfield units and repositioned using Dataviewer 1.5.4 (Bruker). Tibial subchondral bone regions were manually segmented and analysed using CTAn 1.18.4 (Bruker).

[3] = 1 μM days 12-14, with 10 ng/ml IL-1β
[4] = 1 μM throughout differentiation, 10 ng/ml IL-1β days 12-14

CN(C)C(=O)Cn1cc(-c2ccc(-c3cncc4ccccc34)cc2)cn1 [BI1347]
ACAN expression, increase vs DMSO (ATDC5 micromass; [3]): 3 fold
COL2A1 expression, increase vs DMSO (ATDC5 micromass; [3]): 1.5 fold
COL2A1 expression, increase vs DMSO (ATDC5 micromass; 1 μM days 12-14, without IL-1β): 1.7 fold
ACAN expression, increase vs DMSO (ATDC5 micromass; 1 μM days 12-14, without IL-1β (N.S)): 1.2 fold
ACAN expression, increase vs DMSO (ATDC5 micromass; [4]): 20 fold
COL2A1 expression, increase vs DMSO (ATDC5 micromass; [4]): 3 fold
enrichment of downregulated biological process: innate immune response (ATDC5 micromasses; day 7, Gene Ontology): 3 fold
enrichment of downregulated biological process: response to cytokines (ATDC5 micromasses; day 7, Gene Ontology): 3 fold
enrichment of downregulated biological process: response to interferon-beta (ATDC5 micromasses; day 7, Gene Ontology): 15 fold
enrichment of upregulated biological process: Chondrocyte differentiation (ATDC5 micromasses; day 7, Gene Ontology): 6 fold
enrichment of upregulated biological process: Collagen fibril organisation (ATDC5 micromasses; day 7, Gene Ontology): 10 fold
enrichment of upregulated biological process: cartilage development (ATDC5 micromasses; day 7, Gene Ontology): 5.5 fold
enrichment of upregulated biological process: extracellular matrix organisation (ATDC5 micromasses; day 7, Gene Ontology): 5 fold
Log2 Fold Change ACAN (ATDC5 micromasses; RNA-Seq, day 7): 2.40
Log2 Fold Change ADAMT S4 (ATDC5 micromasses; RNA-Seq, day 7): −1.58
Log2 Fold Change AXIN2 (ATDC5 micromasses; RNA-Seq, day 7): −2.38
Log2 Fold Change BARX2 (ATDC5 micromasses; RNA-Seq, day 7): 6.42
Log2 Fold Change BGLAP (ATDC5 micromasses; RNA-Seq, day 7): −1.42
Log2 Fold Change COL2A1 (ATDC5 micromasses; RNA-Seq, day 7): 2.69
Log2 Fold Change COL9A3 (ATDC5 micromasses; RNA-Seq, day 7): 4.44
Log2 Fold Change COL 13A1 (ATDC5 micromasses; RNA-Seq, day 7): −4.99
Log2 Fold Change CPA5 (ATDC5 micromasses; RNA-Seq, day 7): 7.57
Log2 Fold Change CPM (ATDC5 micromasses; RNA-Seq, day 7): 6.76
Log2 Fold Change F5 (ATDC5 micromasses; RNA-Seq, day 7): 6.76
Log2 Fold Change FGFR3 (ATDC5 micromasses; RNA-Seq, day 7): 1.75
Log2 Fold Change GALNT17 (ATDC5 micromasses; RNA-Seq, day 7): 6.56
Log2 Fold Change GDF5 (ATDC5 micromasses; RNA-Seq, day 7): 2.39
Log2 Fold Change GREM1 (ATDC5 micromasses; RNA-Seq, day 7): 1.68
Log2 Fold Change IBSP (ATDC5 micromasses; RNA-Seq, day 7): −6.06
Log2 Fold Change IHH (ATDC5 micromasses; RNA-Seq, day 7): −2.65
Log2 Fold Change IL-6 (ATDC5 micromasses; RNA-Seq, day 7): −3.23
Log2 Fold Change ISG15 (ATDC5 micromasses; RNA-Seq, day 7): −6.47
Log2 Fold Change KLK11 (ATDC5 micromasses; RNA-Seq, day 7): 6.45
Log2 Fold Change MATN1 (ATDC5 micromasses; RNA-Seq, day 7): 5.88
Log2 Fold Change MATN3 (ATDC5 micromasses; RNA-Seq, day 7): 5.87
Log2 Fold Change MEF2C (ATDC5 micromasses; RNA-Seq, day 7): −1.58
Log2 Fold Change NOG (ATDC5 micromasses; RNA-Seq, day 7): 2.08
Log2 Fold Change NOSTRIN (ATDC5 micromasses; RNA-Seq, day 7): −2.00
Log2 Fold Change P2RY10 (ATDC5 micromasses; RNA-Seq, day 7): 6.40
Log2 Fold Change PHLDA2 (ATDC5 micromasses; RNA-Seq, day 7): 6.62
Log2 Fold Change SMOC3 (ATDC5 micromasses; RNA-Seq, day 7): 2.71
Log2 Fold Change SOX5 (ATDC5 micromasses; RNA-Seq, day 7): 1.16
Log2 Fold Change SOX6 (ATDC5 micromasses; RNA-Seq, day 7): 1.11
Log2 Fold Change SOX8 (ATDC5 micromasses; RNA-Seq, day 7): 2.65
Log2 Fold Change TMEM119 (ATDC5 micromasses; RNA-Seq, day 7): −4.98
log2FoldChange GRHL3 (ATDC5 micromasses; RNA-Seq, day 7): −7.66
log2FoldChange MX2 (ATDC5 micromasses; RNA-Seq, day 7): −7.03
log2FoldChange OAS1A (ATDC5 micromasses; RNA-Seq, day 7): −7.64
log2FoldChange OAS2 (ATDC5 micromasses; RNA-Seq, day 7): −11.27
log2FoldChange OAS3 (ATDC5 micromasses; RNA-Seq, day 7): −7.22
log2FoldChange OASL1 (ATDC5 micromasses; RNA-Seq, day 7): −10.46
log2FoldChange RSAD2 (ATDC5 micromasses; RNA-Seq, day 7): −7.12
log2FoldChange SLC36A2 (ATDC5 micromasses; RNA-Seq, day 7): −8.53
log2FoldChange TRIM30D (ATDC5 micromasses; RNA-Seq, day 7): −7.12

Cc1n[nH]c2ncc(C(=O)N3CCC[C@H]3c3ccc(Cl)cc3)cc12 [MSC2530818]
ADAMTS5 gene expression, reduction vs DMSO [1]: 1.3 fold
ACAN gene expression, increase vs DMSO ([1]; OA disease model (+IL1β)): 1.6 fold
MATN3 gene expression, increase vs DMSO ([1]; OA disease model (+IL1β)): 3 fold
glycosaminoglycan (GAG; alcian blue stain) intensity vs DMSO ([1]; both conditions (−IL1β and +IL1β)): increase
ACAN gene expression, increase vs DMSO ([1]; chondrogenic (−IL1β)): 3 fold
MATN3 gene expression, increase vs DMSO ([1]; chondrogenic (−IL1β)): 4 fold
subchondral bone surface area vs DMSO [2]: did not observe an alteration; also recorded: no difference
subchondral bone surface density vs DMSO [2]: did not observe an alteration; also recorded: no difference
subchondral bone volume/total volume (BV/TV) vs DMSO [2]: did not observe an alteration; also recorded: no difference
